{"source": "patent US20190388377A1", "about": "“COMPOSITIONS AND METHODS FOR THE TREATMENT OF LIVER DISEASES AND DISORDERS” (AXCELLA HEALTH INC., priority 2018, published 2019)", "key": {"[1]": {"test_system": "alpha smooth muscle actin (αSMA)", "assay": "HSC activation by alpha SMA immunostaining, TGFβ1-stimulated hepatic stellate cells", "format": "cell-based, human", "experimental": "(§1) Primary human hepatic stellate cells were obtained from Samsara Sciences. Cells from three different donors were grown in Complete HSC Medium to ˜80% confluence in T75 or T150 flasks below passage 10 were seeded into sterile, collagen I coated, 96-well optical plastic microplates (ThermoScientific) and incubated overnight at 37° C., 5% CO2 in a humidified incubator in DMEM with 2% Fetal Bovine Serum and 1% Antimycotic. […] After 24 hours of stimulus, supernatant was removed and used to measure Procollagen III and cells were then washed and fixed with 4% paraformaldehyde for further staining.\nProcollagen III, an important biomarker of fibrosis was measured by ELISA (Human PCIII Elisa Kit, G-Biosciences) following the manufacturer's recommendations. Fixed cells with 4% paraformaldehyde were permeabilized with 0.1% Triton X-100 then immunostained for alpha SMA and labeled for EdU incorporation.\nCells were imaged using ImageXpress micro confocal high content imager (Molecular Devices). […] Image analysis was performed using MetaXpress version 6.2.3.733 (Molecular Devices).\nFixed cells immunostained for alpha smooth muscle actin (αSMA) were analyzed and stained area was normalized to total nuclei count. Fold change were calculated relative to the baseline amino acid (1×HMDB) condition stimulated with 3 ng/mL TGFβ1."}, "Human CCL2 (MCP-1)": {"test_system": "Human CCL2 (MCP-1)", "assay": "MCP1 secretion by ELISA after 24 h, PHH model for NASH, Example 2", "format": "cell-based", "settings": "FFA+TNFα", "experimental": "(§2) PHH from two healthy human donors (Lonza, TRL) were seeded on day 0 at density of 6e04 cells in 96 well optical microplates (Thermofisher) in hepatocyte plating media (William's E medium, WEM) (Gibco) supplemented with 10% heat-inactivated FBS (Atlanta Bio), 2 mM Glutamax (Gibco), and 0.2% Primocin (InVivoGen) and incubated for 6 hours at 37° C., 5% CO2. After 6 hours, cells were washed twice and incubated overnight at 37° C., 5% CO2 with Hepatocytes defined medium (Corning) supplemented with 2 mM Glutamax (Gibco), and 1× Penicillin/Streptomycin. On day 1, cells were washed twice and incubated for 24 h in the hepatocyte culture media in the same conditions described above.\n(§3) On day 2, cells were washed twice with DPBS 1× (Gibco) to remove excess amino acids and maintained in pretreatment media (1×HMDB, a defined custom amino acid concentration based on the mean physiological concentrations in blood, in WEM±supplemental amino acids): • a. Amino acid-free WEM (US Biologicals) supplemented with 11 mM Glucose (Sigma), 0.272 mM Sodium Pyruvate (Sigma), 1× P/S (Gibco) and containing 1×HMDB with no supplemental amino acids; or • b. The same media described above 1×HMDB WEM with supplemental amino acid and amino acid combination treatments at various concentrations. Cells were maintained in the defined media (a. & b.) for 24 hours at 37° C., 5% CO2. The HMDB values are published in the Human Metabolome Database (Wishart D S, Tzur D, Knox C, et al., HMDB: the Human Metabolome Database. Nucleic Acids Res. 2007 January; 35 (Database issue):D521-6. 17202168; which is hereby incorporated by reference in its entirety). Co-Treatment with Free Fatty Acids and Amino Acids Combination\n(§4) After 24 h pre-treatment, cells maintained in the pretreatment media±supplemental amino acids (section (a. & b.) described above) were exposed to free fatty acids (FFA) at 250 uM with a ratio of 2:1 (Oleate:Palmitate) supplemented with TNF-α (Thermofisher) at 1 ng/ml. Cells were incubated with the FFAs mixture (FFAs+TNF-α)±supplemental amino acids treatments for 24 hours at 37° C., 5% CO2. After 24 hours incubation, media was removed for cytokine analysis and replaced by fresh media containing the same conditions described above (FFAs mixture±supplemental amino acids treatments). Cells were incubated for an additional 48 hours for a total of 72 hours of FFA and TNF-α stimulation. After 72 hours of incubation, media was removed for albumin and urea analysis and the cells were fixed for nuclei and lipid staining.\nHuman CCL2 (MCP-1) was measured by ELISA (Human […] DuoSet ELISA, R&D Systems) at 1/20 dilution in 1× Reagent Diluent (Reagent Ancillary Kit 2, R&D Systems). MCP1 data in primary human hepatocytes treated with FFA+TNFα+supplemental amino acids was normalized to 1×HMDB WEM+FFA+TNFα baseline. Data is reported as median fold change from control, statistical analysis was done using t-Test."}, "[2]": {"test_system": "primary human hepatocytes", "assay": "Intracellular lipid accumulation after 72 h by fluorescence microscopy, PHH model for NASH, Example 2", "format": "cell-based", "settings": "FFA+TNFα; for Lipid Median (median fold change from control): 72 h", "experimental": "as §2, §3, §4\nAfter 72 hours, cells were washed twice in 100 ul PBS 1× (Gibco), fixed with 4% Paraformaldehyde, and washed twice with PBS 1× (100 ul). After fixation, lipids were stained with HCS LipidTOX Red Neutral (Thermofisher Scientific) diluted 1000× and nuclei were stained with Hoechst 3342 (Life Technologies) diluted to 4 ug/ml. The LipidTOX™ neutral lipid stain has an extremely high affinity for neutral lipid droplets that was detected by fluorescence microscopy using a high content imager (Molecular Devices). Data was normalized to the cell concentration determined by nuclei count. Images were analyzed and total lipid area was calculated using granularity module in MetaXpress 6 software. Data is reported as median fold change from control, statistical analysis was done using t-Test."}, "Procollagen III": {"test_system": "Procollagen III", "assay": "Procollagen III secretion by ELISA, TGFβ1-stimulated hepatic stellate cells, Example 4", "format": "cell-based, human", "settings": "HSC, three donors", "experimental": "as §1, with “staining. Procollagen III, an important biomarker of fibrosis was measured by ELISA (Human PCIII Elisa Kit, G-Biosciences) following the manufacturer's recommendations. Fixed cells with 4% paraformaldehyde were permeabilized with 0.1% Triton X-100 then immunostained for alpha SMA and labeled for EdU incorporation.” for “staining.”"}}}
{"smiles": "CC(=O)N[C@@H](CS)C(=O)O", "note": "[Nac, N-acetylcysteine]", "values": [{"measurement": "alpha SMA stained area (in words)", "setting": "[1]", "result": "reduced the alpha SMA stained area at a high level"}, {"measurement": "MCP1 secretion (in words)", "setting": "Human CCL2 (MCP-1); hepatocyte donor 1", "result": "reduced MCP1 secretion"}, {"measurement": "MCP1 secretion (in words)", "setting": "Human CCL2 (MCP-1); hepatocyte donor 2", "result": "reduced MCP1 secretion"}, {"measurement": "Lipid Median (median fold change from control)", "setting": "[2]; donor 1, 5 mM", "result": "−0.013"}, {"measurement": "Lipid Median (median fold change from control)", "setting": "[2]; donor 2, 7.5 mM", "result": "−0.359"}, {"measurement": "lipid accumulation (in words)", "setting": "[2]; hepatocyte donor 1", "result": "did not reduce lipid accumulation"}, {"measurement": "lipid accumulation (in words)", "setting": "[2]; hepatocyte donor 2", "result": "reduced lipid accumulation but less than the previously described combinations"}, {"measurement": "procollagen III secretion (in words)", "setting": "Procollagen III", "result": "decreased procollagen III secretion but at a lower extent than LIRNacCar and LIRQNacSCar"}]}
